Results published in patent US11214803B2, “Modulators of YAP1 expression” (Ionis Pharmaceuticals, Inc., priority 2019, dated 2022).
Strand notation (5' to 3'): a small letter for the sugar, then the base; units joined by * are phosphorothioate-linked, units joined directly phosphodiester-linked; [ ] holds rarer units or linkages, { } end groups; capitals alone tell only the bases. k = constrained ethyl (cEt); [5mC] = 5-methylcytosine; d = 2'-deoxy (DNA)

Tests used:
Yap1 mRNA [1] = assay: Antisense inhibition of human Yap1 in A-431 cells by cEt gapmers, single dose (Example 3, RTS36584); type: cell-based
In short: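 Values are % untreated control: Yap1 mRNA by quantitative RT-PCR (RTS36584), normalized to total RNA by RiboGreen. Before RNA isolation, 5,000 A-431 cells per well were exposed ~48 h to 2,000 nM 16-mer cEt gapmer, delivered without transfection reagent.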

Yap1 mRNA [2] = assay: Dose-dependent inhibition of human Yap1 in A-431 cells (Example 8, 10,000 cells per well, RTS4814); type: cell-based; details: free uptake, approximately 48 hours, RTS4814; for Yap1 mRNA, % UTC: A-431 cells, 10,000 cells per well; for IC50: A-431 cells, linear regression on log/linear plot
In short: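 A-431 cells (10,000/well) dosed with modified oligonucleotides by free uptake; Yap1 mRNA measured ~48 h later with primer-probe set RTS4814, normalized to total RNA (RIBOGREEN). Values are % of untreated control; IC50 from linear regression on log/linear plot.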

[3] = Table 28, Yap1 mRNA as percent of untreated control, 3-10-3 cEt gapmers targeting SEQ ID NO.: 1, and 2
[4] = Table 26, Yap1 mRNA by 3-10-3 cEt gapmers targeting SEQ ID NO.: 1, and 2, percent of untreated control
[5] = Table 9, A-431 cells, 5,000 cells per well, free uptake, 2,000 nM, approximately 48 hours, RTS36584, normalized to RIBOGREEN, Yap1 mRNA relative to untreated control cells
[6] = Table 34, Yap1 mRNA as percent of untreated control, 3-10-3 cEt gapmers targeting SEQ ID NO: 1 and 2, single dose
[7] = Table 12, A-431 cells, 5,000 cells per well, free uptake, 2,000 nM modified oligonucleotide, approx. 48 hours, RTS36584, normalized to RIBOGREEN, Yap1 mRNA relative to untreated control cells
[8] = Table 11, A-431 cells, 5,000 cells per well, free uptake, 2,000 nM oligonucleotide, approx. 48 hours, primer probe set RTS36584, Yap1 mRNA normalized to RIBOGREEN, percent of untreated control

| Substance | Yap1 mRNA, % UTC (Yap1 mRNA [2]; 31.3 nM) | Yap1 mRNA, % UTC (Yap1 mRNA [2]; 125.0 nM) | Yap1 mRNA, % UTC (Yap1 mRNA [2]; 500.0 nM) | Yap1 mRNA, % UTC (Yap1 mRNA [2]; 2000.00 nM) | IC50 (Yap1 mRNA [2]) | also measured |
| --- | --- | --- | --- | --- | --- | --- |
| 1074606 (DNA kG*kG*kT*dA*dT*dA*dA*dT*d[5mC]*dA*dT*dG*dA*kT*kT*kA) [compound 1074606] | 31 % UTC | 10 % UTC | 6 % UTC | 4 % UTC | < 20 nM | YAP1 (% UTC) (Yap1 mRNA [1]; [3]): 4 % UTC |
| 1074638 (antisense kA*kG*kA*dT*dT*dT*dT*dG*dT*dA*dA*dT*dT*kG*kG*kG) [compound 1074638] | 14 % UTC | 4 % UTC | 3 % UTC | 3 % UTC | < 20 nM | YAP1 (% UTC) (Yap1 mRNA [1]; [3]): 2 % UTC |
| 1076525 (kG*kA*kA*dT*dT*dT*dA*dT*dA*dT*d[5mC]*dA*dG*kG*kT*k[5mC]; antisense) [compound 1076525] | 43 % UTC | 14 % UTC | 5 % UTC | 2 % UTC | < 20 nM | YAP1 (% UTC) (Yap1 mRNA [1]; Table 27, Yap1 mRNA by 3-10-3 cEt gapmers targeting SEQ ID NO.: 1, and 2, percent of untreated control): 3 % UTC |
| 1076524 (kA*kA*kT*dT*dT*dA*dT*dA*dT*d[5mC]*dA*dG*dG*kT*k[5mC]*kA; antisense) [compound 1076524] | 71 % UTC | 30 % UTC | 12 % UTC | 7 % UTC | 100 nM | YAP1 (% UTC) (Yap1 mRNA [1]; [4]): 6 % UTC |
| 1075084 (antisense kT*kG*kA*d[5mC]*dA*dA*d[5mC]*dA*dA*d[5mC]*dA*d[5mC]*dT*k[5mC]*k[5mC]*kT) [compound 1075084] | 103 % UTC | 72 % UTC | 37 % UTC | 14 % UTC | 300 nM | YAP1 (% UTC) (Yap1 mRNA [1]; [4]): 9 % UTC |
| 1076367 (antisense k[5mC]*kT*kA*dT*dT*dT*dA*d[5mC]*dA*dT*dG*dA*dG*kA*kG*kG) [compound 1076367] | 31 % UTC | 10 % UTC | 4 % UTC | 3 % UTC | < 20 nM | YAP1 (% UTC) (Yap1 mRNA [1]; Table 29, Yap1 mRNA as percent of untreated control, 3-10-3 cEt gapmers targeting SEQ ID NO.: 1, and 2): 3 % UTC |
| 958506 (kG*k[5mC]*kA*dG*dA*dT*dA*dA*dT*d[5mC]*dG*dA*dG*kA*kT*kT; antisense) [Compound 958506] |  |  |  |  |  | YAP1 (% UTC) (Yap1 mRNA [1]; [5]): 6 % UTC |
| 1075829 (kA*k[5mC]*kT*d[5mC]*dA*dA*dT*dA*dG*dA*dT*d[5mC]*dA*kT*kT*kG; antisense) [compound 1075829] |  |  |  |  |  | YAP1 (% UTC) (Yap1 mRNA [1]; Table 35, Yap1 mRNA as percent of untreated control, 3-10-3 cEt gapmers targeting SEQ ID NO: 1 and 2, single dose): 41 % UTC |
| 958566 (kA*k[5mC]*k[5mC]*dT*dA*dT*dG*dA*dA*d[5mC]*dT*dA*dT*kT*kA*kT; antisense) [Compound 958566] |  |  |  |  |  | YAP1 (% UTC) (Yap1 mRNA [1]; [5]): 18 % UTC |
| 1075348 (antisense kT*k[5mC]*kA*d[5mC]*dA*dA*dA*dA*d[5mC]*d[5mC]*d[5mC]*dT*dA*k[5mC]*kA*k[5mC]) [compound 1075348] |  |  |  |  |  | YAP1 (% UTC) (Yap1 mRNA [1]; [6]): 96 % UTC |
| 1075022 (antisense kA*kT*kT*dT*dA*d[5mC]*dA*dA*d[5mC]*d[5mC]*dT*dA*dG*kA*kT*kT) [compound 1075022] |  |  |  |  |  | YAP1 (% UTC) (Yap1 mRNA [1]; [3]): 91 % UTC |
| 958769 (antisense k[5mC]*kA*kT*dT*dG*d[5mC]*d[5mC]*dA*d[5mC]*dG*dA*dT*d[5mC]*kT*kA*kA) [Compound 958769] |  |  |  |  |  | YAP1 (% UTC) (Yap1 mRNA [1]; [7]): 36 % UTC |
| 958558 (kT*kT*k[5mC]*dA*d[5mC]*dA*dA*d[5mC]*d[5mC]*dA*dA*d[5mC]*dT*kA*kT*kT; antisense) [Compound 958558] |  |  |  |  |  | YAP1 (% UTC) (Yap1 mRNA [1]; [8]): 9 % UTC |
| 958789 (antisense kT*kA*k[5mC]*dT*dA*dT*dA*dT*dA*dA*dT*dA*d[5mC]*k[5mC]*k[5mC]*kT) [Compound 958789] |  |  |  |  |  | YAP1 (% UTC) (Yap1 mRNA [1]; [7]): 17 % UTC |
| 958438 (antisense k[5mC]*kG*k[5mC]*d[5mC]*d[5mC]*d[5mC]*dG*dG*d[5mC]*dT*d[5mC]*d[5mC]*dA*k[5mC]*kT*kG) [Compound 958438] |  |  |  |  |  | YAP1 (% UTC) (Yap1 mRNA [1]; [8]): 61 % UTC |
| 1075796 (kA*kG*kT*dA*dA*dT*dT*dA*dT*dA*dT*dA*d[5mC]*k[5mC]*k[5mC]*kA; antisense) [compound 1075796] |  |  |  |  |  | YAP1 (% UTC) (Yap1 mRNA [1]; [6]): 64 % UTC |
| 1074924 (antisense k[5mC]*k[5mC]*kT*dG*d[5mC]*dA*dA*dA*dT*dA*dG*dG*dA*kG*kA*kG) [compound 1074924] |  |  |  |  |  | YAP1 (% UTC) (Yap1 mRNA [1]; [4]): 87 % UTC |
| 958377 (antisense kG*k[5mC]*kT*dG*dG*dG*dA*dT*dT*dG*dA*dT*dA*kT*kT*k[5mC]) [Compound 958377] |  |  |  |  |  | YAP1 (% UTC) (Yap1 mRNA [1]; Table 8, A-431 cells, 5,000 cells per well, free uptake, 2,000 nM, approximately 48 hours, RTS36584, normalized to RIBOGREEN, Yap1 mRNA relative to untreated control cells): 9 % UTC |
